Reference: patent publication US6013626A (priority 1995, dated 2000)
“And” between values parts separate entries of the source, which are not always exact repeats. Equal entries are not always repeated. “Also recorded” adds a separate entry of the source. Where two headings read alike, the source gives them in different places.

What was measured:
[1] = system: Colon 51 (colon adenocarcinoma #51); assay: In vivo activity, SC Colon 51 tumor; set-up: species or system mice
Procedure: (§1) Gross log kill is defined as T-C/3.2 Td where T is the median time in days for the tumors of the treated group to reach 750 mg, C is the median time in days for the tumors of the control group to reach 750 mg, and Td is the tumor volume doubling time.

Mam 16/C = assay: In vivo activity, SC Mam 16/C tumor; set-up: species or system mice
Procedure: as §1

[2] = system: Mam 16/Taxol (taxol-resistant mammary #16/C/RP); assay: In vivo activity, SC Mam 16/Taxol tumor; set-up: species or system mice; settings: Exp 1733, 5 inj. IV, total dose 16.5 mg/kg
Procedure: as §1

M17/0 (Adr. Sens.) = assay: In vivo activity, SC M17/0 tumor; set-up: species or system mice; settings: Exp 1833; SC M17/0 (Adr. Sens.); 5 inj. IV; total dose 5.4 mg/kg
Procedure: as §1

MX-1 Human Breast = assay: In vivo activity, SC MX-1 tumor; set-up: species or system SCID mice; settings: Exp 1806; SC MX-1 Human Breast; 8 inj. IV; total dose 12 mg/kg
Procedure: as §1

H125 Human Adenosq-lung = assay type: in vivo, SCID mice; settings: Exp 1823; SC H125 Human Adenosq-lung; 8 inj. IV; total dose 14.4 mg/kg
Procedure: as §1

LNCaP Human Prostate = assay: In vivo activity, SC LNCaP tumor; set-up: species or system mice; settings: Exp 1841, 6 inj. IV, total dose 6.5 mg/kg
Procedure: as §1

[3] = system: murine and human tumors implanted in mice; assay type: in vivo; settings: for tumor burden T/C values: summary: Cryptophycin 1 in five early stage murine and two early stage human tumors, Cryptophycin 8 in all tumors tested to date; for in vivo antitumor activity: tumors implanted in mice
Procedure: as §1

Toxicity in mice = assay type: in vivo; settings: for cause of lethal toxicity observed during testing: in vivo testing
[4] = system: murine leukemia (L1210 or P388), murine solid tumor, human solid tumor and low malignancy fibroblast (LML)
[5] = system: Colon 38 (colon adenocarcinoma #38)
Procedure: as §1

[6] = system: murine and human tumors implanted in mice; settings: G. Trimurtulu et al. 1994; R. Barrow et al. 1995; cited from earlier work
[7] = system: fungi, especially strains of Cryptococcus; settings: R. E. Schwartz et al. 1990; cited from earlier work
microtubule assembly = settings: C. D. Smith et al. 1994; compared with vinblastine; cited from earlier work
Human Sm Cell L. DMS273 = assay: In vivo activity, SC DMS273 tumor; settings: Exp 1596; SC Human Sm Cell L. DMS273 SCID; 6 inj. IV; total dose 7.3 mg/kg
Procedure: as §1

[8] = system: human tumor cell lines such as KB and LoVo; assay: Cytotoxicity against human tumor cell lines such as KB and LoVo; assay type: cell-based
[9] = system: Panc 03 (pancreatic ductal adenocarcinoma #03); settings: for Log Kill: 9 inj. IV
Procedure: as §1

[10] = Solvolysis (methanolysis) of the C-D ester bond; assay type: physicochemical; settings: methanol used in isolation scheme
colon adenocarcinoma #33 = assay: In vivo activity, early stage colon adenocarcinoma #33; set-up: species or system mice; settings: 8.1 mg/kg
Procedure: Gross log kill is defined as T-C/3.2 Td where T is the median time in days for the tumors of the treated group to reach 750 mg, C is the median time in days for the tumors of the control group to reach 750 mg, and Td is the tumor volume doubling time (T. H. Corbett et al., Cytotoxic Anticancer Drugs: Models and Concepts for Drug Discovery and Development, pp 35-87; Kluwer: Norwell, 1992).

[11] = system: tumor (leukemia) and normal cell (CFUGM) lines; assay type: cell-based; settings: μg/disk per compound where printed
[12] = system: A-10 rat aortic smooth muscle cells; assay type: cell-based
Procedure: A-10 cells were grown to near-confluency on glass coverslips in BME/10% FBS. Compounds in PBS were added to the indicated final concentrations and cells were incubated for an additional 24 hours. For the staining of microtubules and intermediate filaments, the cells were fixed with cold methanol and incubated with PBS containing 10% calf serum to block nonspecific binding sites. Cells were then incubated at 37° C. for 60 min with either monoclonal anti-β-tubulin or with monoclonal anti-vimentin at dilutions recommended by the manufacturer. Bound primary antibodies were subsequently visualized by a 45-minute incubation with fluorescein-conjugated rabbit antimouse IgG. The coverslips were mounted on microscope slides and the fluorescence patterns were examined and photographed using a Zeiss Photomicroscope I11 equipped with epifluoroescence optics for fluorescein. […] PBS containing 100 nM TRITC-phalloidin was then added and the mixture was allowed to incubate for 45 min at 37° C. The cells were washed rapidly three times with PBS before the coverslips were mounted and immediately photographed as described above.
After 24 hours, microtubules and vimentin intermediate filaments were visualized by indirect immunofluorescence and microfilaments were stained using TRITC-phalloidin. The morphological effects of each drug were examined.
After 24 hours, microtubule organization was examined by immunofluorescence as described above.
The cells were then washed and incubated in drug-free medium for periods of 1 hour or 24 hours.

SKOV3 cells = assay: Reversibility of inhibition of SKOV3 cell proliferation; assay type: cell-based, human; settings: SKOV3 cells treated 24 hours with IC50 dose, then drug-free medium
Procedure: After 24 hours the cells were washed and incubated in drug-free medium for the time indicated. The cell density was determined by sulforhodamine B (SRB) staining as described in the Experimental Section, and is expressed as the mean ± sd adsorbance at 560 nm for triplicate samples in one of three experiments.

[13] = μg/disk differs per compound (0.2-250 μg/disk)
[14] = Exp 1769, SC C38, 15 inj. IV, 45 mg/kg TD
[15] = pancreatic ductal adenocarcinoma #03, 8.1 mg/kg

COc1ccc(C[C@H]2NC(=O)/C=C/C[C@@H]([C@H](C)[C@H]3O[C@@H]3c3ccccc3)OC(=O)[C@H](CC(C)C)OC(=O)[C@H](C)CNC2=O)cc1Cl [Cryptophycin 1]
Cures ([1]; Exp 1636, 7 inj. IV, total dose 28.1 mg/kg): 0/5 | Cures (Mam 16/C; Exp 1720, 5 inj. IV, total dose 13.2 mg/kg): 0/5 | Cures [2]: 0/4 | Cures (M17/0 (Adr. Sens.)): 0/5 | Cures (MX-1 Human Breast): 0/5 | Log Kill (MX-1 Human Breast): 2.0 | Cures (H125 Human Adenosq-lung): 0/5 | Log Kill (H125 Human Adenosq-lung): 1.1 | Cures (LNCaP Human Prostate): 0/5 | Log Kill (LNCaP Human Prostate): < 1 | log kill values, range over trials ([3]; summary b714): <1 to 2 | tumor burden T/C values [3]: less than 10% | in vivo antitumor activity [3]: shows antitumor activity; also recorded: very promising activity | cause of lethal toxicity observed during testing (Toxicity in mice): attributed to leucopenia | Corbett Assay, Differential in Zone Units [4]: > 400 | Corbett Assay, Type of Cytotoxicity [4, 13]: E/T | % Body Wt. Loss at Nadir ([5]; Exp 1560, SC Colon 38, 8 inj. IV, total dose 10.3 mg/kg): Gain | activity against subcutaneously transplanted solid tumors in mice [6]: very active against subcutaneously transplanted solid tumors in mice | antifungal activity [7]: very active against fungi, especially strains of Cryptococcus | inhibition of microtubule assembly (microtubule assembly): irreversibly inhibiting mircotubule assembly | % Body Wt. Loss at Nadir (Human Sm Cell L. DMS273): 0% | Cures (Human Sm Cell L. DMS273): 0/5 | Log Kill (Human Sm Cell L. DMS273): < 1

COc1ccc(C[C@H]2NC(=O)/C=C/C[C@@H]([C@H](C)[C@H]3O[C@@H]3c3ccccc3)OC(=O)[C@H](CC(C)C)OC(=O)[C@H](C)CNC2=O)cc1 [Cryptophycin 2]
Corbett Assay, Differential in Zone Units [4, 13]: > 400 zone units | Corbett Assay, Type of Cytotoxicity [4, 13]: E/T

COc1ccc(C[C@H]2NC(=O)/C=C/C[C@@H]([C@H](C)/C=C/c3ccccc3)OC(=O)[C@H](CC(C)C)OC(=O)[C@H](C)CNC2=O)cc1Cl [Cryptophycin 3]
IC50's [8]: 2 to 4 ng/mL | Corbett Assay, Differential in Zone Units [4]: > 400 | Corbett Assay, Type of Cytotoxicity [4, 13]: E/T

COc1ccc(C[C@H]2NC(=O)/C=C/C[C@@H]([C@H](C)/C=C/c3ccccc3)OC(=O)[C@H](CC(C)C)OC(=O)[C@H](C)CNC2=O)cc1 [Cryptophycin 4]
Corbett Assay, Differential in Zone Units [4, 13]: > 400 zone units | Corbett Assay, Type of Cytotoxicity [4, 13]: E/T

COc1ccc(C[C@H]2NC(=O)/C=C/C[C@@H]([C@H](C)[C@@H](O)[C@@H](Cl)c3ccccc3)OC(=O)[C@H](CC(C)C)OC(=O)[C@H](C)CNC2=O)cc1Cl [Cryptophycin 8]
Cures ([1]; Exp 1900, 9 inj. IV, 67.5 mg/kg TD): 0/5 | Cures (Mam 16/C; Exp 1885, 7 inj. IV, 21.3 mg/kg TD): 0/5 | Cures ([3]; summary b279): some cures | gross log kill activity ratings ([3]; summary b279): +++ to ++++ | tumor burden T/C values [3]: < 10% | cause of lethal toxicity observed during testing (Toxicity in mice): attributed to leucopenia | Corbett Assay, Differential in Zone Units [4]: > 500 | Corbett Assay, Type of Cytotoxicity [4, 13]: E/T | Log Kill [5, 14]: None | T/C [5, 14]: > 100% | % Body Wt. Loss at Nadir ([5]; Exp 1887B, SC C38, 6 inj. IV, 30 mg/kg TD): -2% | Cures ([9]; Exp 1825, SC P03, 11 inj. IV, 106 mg/kg TD): 0/5

CC(C)C[C@@H]1OC(=O)[C@H](C)CNC(=O)[C@@H](Cc2ccc(O)c(Cl)c2)NC(=O)/C=C/C[C@@H]([C@H](C)[C@H]2O[C@@H]2c2ccccc2)OC1=O [Cryptophycin 16]
Log Kill ([9]; Exp 1878, SC P03, 82 mg/kg TD): None

COc1ccc(C[C@H]2NC(=O)/C=C/C[C@@H]([C@H](C)[C@H]3O[C@@H]3c3ccccc3)OC(=O)[C@H](CC(C)C)OC(=O)CCNC2=O)cc1Cl [Cryptophycin 21]
in vivo antitumor activity [3]: inactive | susceptibility to methanolysis [10]: much more susceptible to methanolysis than Cryptophycin 1 | Log Kill ([9]; Exp 1813, SC P03, 27 mg/kg TD): None

COc1ccc(CC2NC(=O)CCCC(C(C)C3OC3c3ccccc3)OC(=O)C(CC(C)C)OC(=O)C(C)CNC2=O)cc1Cl (stereo not shown) [Cryptophycin 35]
in vivo antitumor activity [3]: Good in vivo activity

COc1ccc(C[C@H]2NC(=O)/C=C/C[C@@H]([C@H](C)/C=C/c3ccccc3)OC(=O)[C@H](CC(C)C)OC(=O)C(C)(C)CNC2=O)cc1Cl [Cryptophycin 51]
IC50's [8]: 2 to 4 ng/mL

COc1ccc(C[C@H]2NC(=O)/C=C/C[C@@H]([C@H](C)[C@H]3O[C@@H]3c3ccccc3)OC(=O)[C@H](CC(C)C)OC(=O)C(C)(C)CNC2=O)cc1Cl [Cryptophycin 52]
in vivo antitumor activity [3]: antitumor activity is seen at sublethal levels; also recorded: comparable in vivo activity to Cryptophycin 1 | gross (tumor cell) log kill (colon adenocarcinoma #33): < 2 | tumor burden T/C (colon adenocarcinoma #33): 4% | IC50's [8]: 0.025 to 0.05 ng/mL | acute and chronic toxicities (Toxicity in mice; in mice): greater than Cryptophycin 1 | gross (tumor cell) log kill [9, 15]: < 2 | tumor burden T/C [9, 15]: 16%

CC(=O)O[C@H]1C(=O)[C@@]2(C)[C@H]([C@H](OC(=O)c3ccccc3)[C@]3(O)C[C@H](OC(=O)[C@H](O)[C@@H](NC(=O)c4ccccc4)c4ccccc4)C(C)=C1C3(C)C)[C@]1(OC(C)=O)CO[C@@H]1C[C@@H]2O [Taxol, taxol, reference compound]
Corbett Assay, Differential in Zone Units [4, 13]: ≥ 400 zone units | Corbett Assay, Type of Cytotoxicity [4, 13]: M/H/T

COc1cc([C@@H]2c3cc4c(cc3[C@@H](O[C@@H]3O[C@@H]5CO[C@@H](C)O[C@H]5[C@H](O)[C@H]3O)[C@H]3COC(=O)[C@H]23)OCO4)cc(OC)c1O [VP-16, etoposide, reference compound]
Valeriote Assay, Differential in Zone Units [11]: 260 zone units | Corbett Assay, Differential in Zone Units [4, 13]: 350 zone units and 530 zone units

CC[C@]1(O)C[C@@H]2CN(CCc3c([nH]c4ccccc34)[C@@](C(=O)OC)(c3cc4c(cc3OC)N(C)[C@H]3[C@@](O)(C(=O)OC)[C@H](OC(C)=O)[C@]5(CC)C=CCN6CC[C@]43[C@@H]65)C2)C1 [Vinblastine]
effect on taxol-stabilized microtubules ([12]; A-10 cells pretreated 3 hours with 10 μM taxol, then 100 nM vinblastine or 10 nM cryptophycin compound, 24 hours): pretreatment with taxol prevented microtubule depolymerization | effect on vimentin intermediate filaments ([12]; A-10 cells, 24 hours, 100 nM vinblastine or 10 nM cryptophycin compounds): vimentin intermediate filaments collapsed | effect on microtubules ([12]; A-10 cells, 24 hours, 2 μM cytochalasin B, 100 nM vinblastine or 10 nM cryptophycin compounds): marked depletion of microtubles | reversibility of microtubule depolymerization after removal of compound ([12]; A-10 cells, 24 hr with 100 nM vinblastine or 10 nM cryptophycins, then drug-free medium 1 hour or 24 hours): complete morphological recovery by 24 hour | increase in cell number in the 24 hours following removal of the drug (SKOV3 cells): approximately 3 fold
